System: brain
Assay: Maturation of TTM-002 capsid, NGS enrichment in brain of CD-1 Outbred mice
Assay type: in vivo
Details: NGS fold-enrichment in the brain of CD-1 Outbred mice; intravenous, 1.0×10^12 VG/dose, 14 days; RNA; relative to non-matured TTM-002 control
Excerpt: This Example describes maturation of the TTM-001 (SEQ ID NO: 981 (amino acid) and 983 (DNA), comprising SEQ ID NO: 941) and TTM-002 (SEQ ID NO: 982 (amino acid) and 984 (DNA), comprising SEQ ID NO: 2) capsid variants to further enhance their transduction and biodistribution in the central nervous system and evolve the AAV capsid variants to provide further cross-species compatibility. Two approaches were used to mature the TTM-001 and TTM-002 capsid sequences in order to randomize and mutate within and around the peptide insert comprised within loop IV of the capsid variant. […] In the first maturation approach, sets of three contiguous amino acids were randomized across the mutagenesis region in the TTM-001 and TTM-002 sequences, which spanned from position 450 to position 466, numbered according to SEQ ID NO: 981 and 982. In the second maturation approach, mutagenic primers were used to introduce point mutations at a low frequency, scattered across the mutagenesis region in the TTM-001 and TTM-002 sequences ranging from position 449 to position 466, numbered according to SEQ ID NO: 981 and 982. AAV capsid variants arising from each maturation approach for TTM-001 were pooled together and AAV capsid variants arising from each maturation approach for TTM-002 were also pooled together, for subsequent testing and characterization in mice.
The library of pooled matured AAV capsid variants generated from TTM-001 or library of pooled matured AAV capsid variants generated from the TTM-002 matured AAV capsid variant each were intravenously injected into the tail vein of three female CD-1 Outbred mice (Charles River) at a dose of 1.0×10^12 VG/dose. After 14-days in life, the brains of the mice were isolated and RNA was extracted. Following RNA recovery and RT-PCR amplification, a systematic NGS enrichment analysis was performed to calculate the fold enrichment ratio relative to the corresponding TTM-001 or TTM-002 control, and the peptides comprised within the variants were identified. The data for the TTM-001 matured capsid variants is provided in Table 13 and the data for the TTM-002 matured capsid variants is provided in Table 14.

Sequence | Fold enrichment over TTM-002
KADMGHDSPHKSGQNQQT | 2.48
KADQGHDSPHKSGQNQQT | 2.07
KADWGHDSPHKSGQNQQT | 2.32
KADYGHDSPHKSGQNQQT | 2.40
KAEQGHDSPHKSGQNQQT | 2.14
KAEVGHDSPHKSGQNQQT | 2.15
KAEWGHDSPHKSGQNQQT | 2.69
KANNGQDSPHKSGQNQQT | 2.67
KATNGHDSPHKSGLNQQT | 2.10
KCEIGHDSPHKSGQNQQT | 2.10
KCEWGHDSPHKSGQNQQT | 2.68
KCEYGHDSPHKSGQNQQT | 2.36
KDIMGHDSPHKSGQNQQT | 2.23
KFEQGHDSPHKSGQNQQT | 2.22
KHDWGHDSPHKSGQNQQT | 2.00

Reference: patent publication US20260250318A1, “COMPOSITIONS AND METHODS FOR CROSSING THE BLOOD BRAIN BARRIER” (VOYAGER THERAPEUTICS, INC., priority 2022, published 2026)
